Square brackets hold non-standard residues; d marks the D form. Peptide text beside a SMILES is read from it. dNMeF = CN[C@H](Cc1ccccc1)C(=O)O; dAbu = CC[C@@H](N)C(=O)O
test system: growth hormone release, rat pituitary cells; test: in vitro test for the inhibition of growth hormone release in cultured rat pituitary cells; format: cell-based; conditions: multiples or fractions of the effect of somatostatin (arbitrary value 1); rat pituitary cells after 4 days in culture, 4 hours incubation, graded doses; growth hormone by radioimmunoassay
Method: The instant cyclic hexapeptide analogs ofsomatostatin are tested and compared with the effects of somatostatin in an in vitro test for the inhibition of growth hormone. The test is described as follows:
"Rat pituitaries" were isolated according to the procedures of Vale and Grant `In vitro Pituitary Hormone Secretion Assay for Hypophysiopic Substances` in Methods in Enzymology. Vol.XXXVII, eds. O'Malley, B. W. and Hardman, J. G. (Academic Press, Inc., New York) pp.5-93 (1975).
"After 4 days in culture, the cells were washed and incubated for 4 hours in Dulbecco-modified Eagle's medium in the presence or absence of graded doses of each analog of somatostatin. The medium was then collected for subsequent growth hormone determination by a double antibody radioimmunoassay for rat growth hormone."
The test results for some of the compounds of this invention are recorded below with the results for somatostatin listed first and given the arbitrary value of 1. The results for the instant compounds are given as multiples or fractions of the effect of somatostatin. The first of the instant compounds listed is the compound prepared in Examples 1-5. The compound is written slightly different, however, to conform to the order of the amino acids found in somatostatin.

| SMILES | Growth Hormone Release Inhibition In Vitro |
| --- | --- |
| CC[C@H]1NC(=O)[C@@H](Cc2ccc(O)cc2)NC(=O)[C@@H](Cc2c[nH]c3ccccc23)NC(=O)[C@H](CCCCN)NC(=O)[C@@H](C(C)C)NC(=O)[C@@H](Cc2ccccc2)N(C)C1=O [Cyclo-(D-Abu--N--Me--D-Phe--D-Val--L-Lys--D-Trp--D-Tyr)] (cyclo(K[dW][dY][dAbu][dNMeF][dV])) | 2.4 |
| C[C@H](O)[C@H]1NC(=O)[C@@H](Cc2ccccc2)N(C)C(=O)[C@@H](C)NC(=O)[C@@H](Cc2ccccc2)NC(=O)[C@H](Cc2c[nH]c3ccccc23)NC(=O)[C@@H](CCCCN)NC1=O [Cyclo-(D-Ala--N--Me--D-Phe--D-Thr--D-Lys--L-Trp--D-Phe)] (cyclo(W[dF][dA][dNMeF][dT][dK])) | 0.27 |
| C[C@H](O)[C@H]1NC(=O)[C@@H](Cc2ccccc2)N(C)C(=O)[C@@H](C)NC(=O)[C@@H](Cc2ccccc2)NC(=O)[C@@H](Cc2c[nH]c3ccccc23)NC(=O)[C@H](CCCCN)NC1=O [Cyclo-(D-Ala--N--Me--D-Phe--D-Thr--L-Lys--D-Trp--D-Phe)] (cyclo(K[dW][dF][dA][dNMeF][dT])) | 0.88 |
| CC(C)[C@H]1NC(=O)[C@@H](Cc2ccccc2)N(C)C(=O)[C@@H](C)NC(=O)[C@@H](Cc2ccccc2)NC(=O)[C@@H](Cc2c[nH]c3ccccc23)NC(=O)[C@H](CCCCN)NC1=O [Cyclo-(D-Ala--N--Me--D-Phe--D-Val--L-Lys--D-Trp--D-Phe)] (cyclo(K[dW][dF][dA][dNMeF][dV])) | 0.3 |
